# Reference: US20070249590A1, “Substituted indolo[2,3-a]pyrrolo[3,4-c]carbazole compounds useful in treating kinase disorders” (priority 2005, published 2007)
# Target: T1, JAK3 (JH1 and JH2 domain) (Homo sapiens, UniProt P52333)
# T1 sequence (P52333 521-1111 limits assumed): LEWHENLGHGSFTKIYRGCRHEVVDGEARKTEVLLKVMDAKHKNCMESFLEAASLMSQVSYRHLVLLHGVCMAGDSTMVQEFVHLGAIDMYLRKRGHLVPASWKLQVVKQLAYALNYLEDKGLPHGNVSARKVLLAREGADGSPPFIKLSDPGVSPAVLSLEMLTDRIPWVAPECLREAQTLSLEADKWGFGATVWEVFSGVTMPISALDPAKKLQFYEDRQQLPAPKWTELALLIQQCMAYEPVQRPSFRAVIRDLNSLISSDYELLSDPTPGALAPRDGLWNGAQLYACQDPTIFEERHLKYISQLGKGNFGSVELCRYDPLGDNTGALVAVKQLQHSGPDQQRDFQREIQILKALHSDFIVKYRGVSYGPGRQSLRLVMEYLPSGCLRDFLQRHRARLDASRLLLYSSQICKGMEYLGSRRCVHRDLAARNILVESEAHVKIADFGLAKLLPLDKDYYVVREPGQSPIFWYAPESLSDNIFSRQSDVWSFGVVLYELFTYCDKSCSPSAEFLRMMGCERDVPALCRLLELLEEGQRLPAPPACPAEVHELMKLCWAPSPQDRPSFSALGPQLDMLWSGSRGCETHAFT
# Test: JAK3 Kinase Assay (ELISA of peptide substrate phosphorylation)
# Assay type: biochemical
# Settings: purified JAK3 enzyme, 10 μM ATP, biotinylated peptide substrate, 1 hour at room temperature
# Outline: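 Sf21-baculovirus-expressed JAK3 (JH1+JH2), glutathione-bead purified, with biotinylated peptide substrate (in buffer containing 10 μM ATP) in HEPES pH 7.5/MgCl2/DTT, 1 h RT. Product was captured on Neutravidin, detected with HRP anti-phosphotyrosine (PY99)/TMB, OD 450/650 nm. Triplicate 16-point half-log series from 200 μM gave IC50; otherwise % inhibition at 1 μM.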
row,SMILES,IC50 [µM]
1,"COc1ccc2[nH]cc(CCNC(=O)OC3Cn4c5ccccc5c5c6c(c7c8ccccc8n(c7c54)CC3O)C(=O)NC6=O)c2c1 (centres unmarked) [Cpd 87, 12,13-(2-{[2-(5-methoxy-1H-indol-3-yl)ethyl]carbamoyloxy}-3-hydroxy-butan-1,4-yl)-12,13-dihydro-5,7-dioxo-6H-indolo[2,3-a]pyrrolo[3,4-c]carbazole]",0.169
2,"O=C(NCCCN1CCOCC1)OC1Cn2c3ccccc3c3c4c(c5c6ccccc6n(c5c32)CC1O)C(=O)NC4=O (centres unmarked) [Cpd 88, 12,13-{2-[(3-morpholin-4-yl-prop-1-yl)carbamoyloxy]-3-hydroxy-butan-1,4-yl}-12,13-dihydro-5,7-dioxo-6H-indolo[2,3-a]pyrrolo[3,4-c]carbazole]",0.113
3,"O=C(NCc1ccncc1)OC1Cn2c3ccccc3c3c4c(c5c6ccccc6n(c5c32)CC1O)C(=O)NC4=O (centres unmarked) [Cpd 89, 12,13-{2-[(pyridin-4-yl-methyl)carbamoyloxy]-3-hydroxy-butan-1,4-yl}-12,13-dihydro-5,7-dioxo-6H-indolo[2,3-a]pyrrolo[3,4-c]carbazole]",0.027
4,"CN1CCN(CCCNC(=O)OC2Cn3c4ccccc4c4c5c(c6c7ccccc7n(c6c43)CC2O)C(=O)NC5=O)CC1 (centres unmarked) [Cpd 90, 12,13-(2-{[3-(4-methyl-piperazin-1-yl)prop-1-yl]carbamoyloxy}-3-hydroxy-butan-1,4-yl)-12,13-dihydro-5,7-dioxo-6H-indolo[2,3-a]pyrrolo[3,4-c]carbazole]",0.144
5,"O=C(NCCCn1ccnc1)OC1Cn2c3ccccc3c3c4c(c5c6ccccc6n(c5c32)CC1O)C(=O)NC4=O (centres unmarked) [Cpd 91, 12,13-{2-[(3-imidazol-1-yl-prop-1-yl)carbamoyloxy]-3-hydroxy-butan-1,4-yl}-12,13-dihydro-5,7-dioxo-6H-indolo[2,3-a]pyrrolo[3,4-c]carbazole]",0.044
6,"O=C(NCCN1CCCC1)OC1Cn2c3ccccc3c3c4c(c5c6ccccc6n(c5c32)CC1O)C(=O)NC4=O (centres unmarked) [Cpd 92, 12,13-{2-[(2-pyrrolidin-1-yl-ethyl)carbamoyloxy]-3-hydroxy-butan-1,4-yl}-12,13-dihydro-5,7-dioxo-6H-indolo[2,3-a]pyrrolo[3,4-c]carbazole]",0.097
7,"CN(C)c1ccc(CNC(=O)OC2Cn3c4ccccc4c4c5c(c6c7ccccc7n(c6c43)CC2O)C(=O)NC5=O)cc1 (centres unmarked) [Cpd 93, 12,13-{2-[(4-dimethylamino-benzyl)carbamoyloxy]-3-hydroxy-butan-1,4-yl}-12,13-dihydro-5,7-dioxo-6H-indolo[2,3-a]pyrrolo[3,4-c]carbazole]",0.065
8,O=C1NC(=O)c2c1c1c3ccccc3n3c1c1c2c2ccccc2n1CC(OC(=O)N1CCN(CCN2CCOCC2)CC1)C(O)C3 (centres unmarked) [Cpd 94],0.516
9,"O=C1NC(=O)c2c1c1c3ccccc3n3c1c1c2c2ccccc2n1CC(OC(=O)N1CCN(C(=O)CN2CCCC2)CC1)C(O)C3 (centres unmarked) [Cpd 95, 12,13-[2-({4-[(pyrrolidin-1-yl-methyl)carbonyl]piperazin-1-yl}carbonyloxy)-3-hydroxy-butan-1,4-yl]-12,13-dihydro-5,7-dioxo-6H-indolo[2,3-a]pyrrolo[3,4-c]carbazole]",0.159
10,"O=C1NC(=O)c2c1c1c3ccccc3n3c1c1c2c2ccccc2n1CC(OC(=O)N1CCN(c2ccncc2)CC1)C(O)C3 (centres unmarked) [Cpd 96, 12,13-{2-[(4-pyridin-4-yl-piperazin-1-yl)carbonyloxy]-3-hydroxy-butan-1,4-yl}-12,13-dihydro-5,7-dioxo-6H-indolo[2,3-a]pyrrolo[3,4-c]carbazole]",0.295
11,"CN(C)CCCN1CCN(C(=O)OC2Cn3c4ccccc4c4c5c(c6c7ccccc7n(c6c43)CC2O)C(=O)NC5=O)CC1 (centres unmarked) [Cpd 97, 12,13-(2-{[4-(3-dimethylamino-prop-1-yl)piperazin-1-yl]carbonyloxy}-3-hydroxy-butan-1,4-yl)-12,13-dihydro-5,7-dioxo-6H-indolo[2,3-a]pyrrolo[3,4-c]carbazole]",0.175
